Experimental data as given in ChEMBL document CHEMBL1201862, “PubChem BioAssay data set” (2004).
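Five compound concentrations were applied to cells in 96-well plates for 48 hours; endpoints were derived by simple linear interpolation of the resulting dose-response curve. Here, GI50 denotes the concentration required for 50% inhibition of growth.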 Activity calls are given as the source filed them. Rule as the data show it: active = GI50 up to about 1.1 µM and inactive = higher.

Assays:
Test in all cases: growth of human tumour cells (NCI), 48 h
LXFL 529 = system: LXFL 529
KM-20L2 = system: KM-20L2
SNB-78 = system: SNB-78
DMS-273 = system: DMS-273
M19-MEL = system: M19-MEL
HOP-18 = system: HOP-18
XF498 = system: XF498
DLD-1 = system: DLD-1
RXF 631 = system: RXF 631

Question: Which results are given for `O=C(NNC(=S)Nc1ccccc1)c1nsc2ccccc12`?
Answer: GI50 (LXFL 529): 28.1 µM (inactive); GI50 (KM-20L2): 30.8 µM (inactive); GI50 (SNB-78): 47.9 µM (inactive); GI50 (DMS-273): 17.3 µM (inactive); GI50 (M19-MEL): 28.9 µM (inactive); GI50 (HOP-18): 10.3 µM (inactive)

Question: Which GI50 (KM-20L2) does the source give for `CN(C)CCOc1cc2c(c3ccccc13)-c1ccccc1C2O` (configuration not stated) here?
Answer: 15.6 µM (inactive)

Question: What about the GI50 (XF498) of the same molecule?
Answer: 12.9 µM (inactive)

Question: And the GI50 (SNB-78)?
Answer: 15.9 µM (inactive)

Question: And the GI50 (DMS-273)?
Answer: 15 µM (inactive)

Question: And the GI50 (M19-MEL)?
Answer: 16.6 µM (inactive)

Question: And the GI50 (HOP-18)?
Answer: 14.8 µM (inactive)

Question: What about the GI50 (DLD-1) of the same molecule?
Answer: 15.8 µM (inactive)

Question: Which results are given for `CN(C)C(=O)Oc1c(Br)cc(Br)cc1C(=O)OCc1ccccc1`?
Answer: GI50 (KM-20L2): 22.8 µM (inactive); GI50 (XF498): 19.3 µM (inactive); GI50 (SNB-78): 33.1 µM (inactive); GI50 (DMS-273): 17.3 µM (inactive); GI50 (M19-MEL): 20 µM (inactive); GI50 (HOP-18): 33.2 µM (inactive); GI50 (DLD-1): 25.4 µM (inactive)

Question: Which results are given for `CCNC(=S)NNC(=O)c1nsc2ccccc12`?
Answer: GI50 (LXFL 529): 53.3 µM (inactive); GI50 (KM-20L2): 64.9 µM (inactive); GI50 (SNB-78): > 100 µM (inactive); GI50 (DMS-273): 97.5 µM (inactive); GI50 (M19-MEL): 97.3 µM (inactive); GI50 (HOP-18): 23.1 µM (inactive)

Question: For `Cc1nc2ccccc2c(=O)n1/N=C(\N=N\c1ccc(Cl)cc1)c1cccc(-c2ccco2)c1`, which GI50 (LXFL 529) is on record?
Answer: 25.3 µM (inactive)

Question: And the GI50 (KM-20L2)?
Answer: 27.3 µM (inactive)

Question: And the GI50 (DMS-273)?
Answer: 27.9 µM (inactive)

Question: What about the GI50 (M19-MEL) of the same molecule?
Answer: 34.1 µM (inactive)

Question: And the GI50 (HOP-18)?
Answer: 21.1 µM (inactive)

Question: What about the GI50 (DLD-1) of the same molecule?
Answer: 27.9 µM (inactive)

Question: Which results are given for `COc1cc([C@@H]2c3cc4c(cc3[C@H](O)[C@H]3COC(=O)[C@H]23)OCO4)cc(OC)c1OC` [PODOFILOX]?
Answer: GI50 (LXFL 529): 0.01 µM (active); GI50 (XF498): 0.0354 µM (active); GI50 (SNB-78): 0.01 µM (active); GI50 (DMS-273): 0.01 µM (active); GI50 (HOP-18): > 100 µM (inactive); GI50 (DLD-1): 0.0243 µM (active)

Question: What does the source list for `O[C@H]1[C@H]2[C@H](O)CCCN2C[C@H]1O` [TRIDOLGOSIR]?
Answer: GI50 (LXFL 529): > 100 µM (inactive); GI50 (KM-20L2): > 100 µM (inactive); GI50 (XF498): > 100 µM (inactive); GI50 (SNB-78): > 100 µM (inactive); GI50 (DMS-273): > 100 µM (inactive); GI50 (M19-MEL): > 100 µM (inactive); GI50 (HOP-18): > 100 µM (inactive); GI50 (DLD-1): > 100 µM (inactive)

Question: What does the source list for `O=C(Nc1ccc([N+](=O)[O-])cc1)C(=O)C(C(=O)c1ccccc1F)C1OC(=O)c2ccccc21` (configuration not stated)?
Answer: GI50 (LXFL 529): 33.7 µM (inactive); GI50 (RXF 631): 26 µM (inactive); GI50 (KM-20L2): 33.9 µM (inactive); GI50 (XF498): 70.3 µM (inactive); GI50 (SNB-78): 5.65 µM (inactive); GI50 (DMS-273): 23.8 µM (inactive); GI50 (M19-MEL): 28.1 µM (inactive); GI50 (DLD-1): 40.6 µM (inactive)

Question: With `CSC1SCC2C(=O)N(C)C(C(C)C)C(=O)OCC(NC(=O)c3cnc4ccccc4n3)C(=O)NC(C)C(=O)N(C)C1C(=O)N(C)C(C(C)C)C(=O)OCC(NC(=O)c1cnc3ccccc3n1)C(=O)NC(C)C(=O)N2C` (configuration not stated) as the molecule, how does the GI50 (KM-20L2) read?
Answer: 0.0075 µM (active)

Question: And the GI50 (SNB-78)?
Answer: 0.0075 µM (active)

Question: And the GI50 (DMS-273)?
Answer: 0.0075 µM (active)

Question: What about the GI50 (HOP-18) of the same molecule?
Answer: 0.0075 µM (active)

Question: What about the GI50 (DLD-1) of the same molecule?
Answer: 0.0075 µM (active)

Question: Which GI50 (LXFL 529) does the source give for `COc1ccc(/N=C\c2ccc(N(CCC#N)S(=O)(=O)c3ccccc3)cc2C)cc1` here?
Answer: 8.99 µM (inactive)

Question: And the GI50 (RXF 631)?
Answer: 59.8 µM (inactive)

Question: What about the GI50 (KM-20L2) of the same molecule?
Answer: 12 µM (inactive)

Question: What about the GI50 (XF498) of the same molecule?
Answer: > 100 µM (inactive)

Question: And the GI50 (SNB-78)?
Answer: 79.1 µM (inactive)

Question: What about the GI50 (M19-MEL) of the same molecule?
Answer: 41.7 µM (inactive)

Question: What about the GI50 (HOP-18) of the same molecule?
Answer: > 100 µM (inactive)

Question: For `COC(=O)CN(C)P(=O)(N1CC1)N1CC1`, which GI50 (LXFL 529) is on record?
Answer: > 100 µM (inactive)

Question: And the GI50 (RXF 631)?
Answer: > 100 µM (inactive)

Question: What about the GI50 (KM-20L2) of the same molecule?
Answer: > 100 µM (inactive)

Question: And the GI50 (SNB-78)?
Answer: > 100 µM (inactive)

Question: What about the GI50 (DMS-273) of the same molecule?
Answer: > 100 µM (inactive)

Question: What about the GI50 (DLD-1) of the same molecule?
Answer: > 100 µM (inactive)
